Like-named read-outs stand apart in the source and are kept apart here.
Columns and labels:
[1] = tested on: type I and II HDACs; assay: recombinant HDAC inhibition, summary over isoenzymes; type: biochemical, human
[2] = molecular target: T1, HDAC8 (Homo sapiens, UniProt Q9BY41); assay: human recombinant HDAC inhibition assay; type: biochemical; settings: read-out: Ki value HDAC8
T1 sequence (Q9BY41 1-377): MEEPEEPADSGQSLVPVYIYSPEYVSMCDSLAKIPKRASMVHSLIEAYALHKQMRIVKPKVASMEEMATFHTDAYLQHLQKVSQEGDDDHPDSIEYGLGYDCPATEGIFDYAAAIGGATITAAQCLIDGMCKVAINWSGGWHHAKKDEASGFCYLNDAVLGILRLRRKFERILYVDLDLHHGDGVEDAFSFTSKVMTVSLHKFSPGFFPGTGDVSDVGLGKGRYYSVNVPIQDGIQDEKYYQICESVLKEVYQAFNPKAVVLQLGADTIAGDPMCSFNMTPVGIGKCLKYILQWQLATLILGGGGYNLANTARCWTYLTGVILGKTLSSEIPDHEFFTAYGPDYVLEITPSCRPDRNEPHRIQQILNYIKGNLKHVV

[3] = tested on: RAW264.7 murine macrophages; assay: Gene expression analysis in RAW264.7 by RT-q-PCR after LPS and IFNγ stimulus; type: cell-based
[4] = tested on: RAW264.7 macrophages; assay: Viability assay; type: cell-based, murine; settings: C646 concentrations above 30 μM, 20 hrs
[5] = molecular target: T2, lysine acetyltransferase 8 (KAT8) (Homo sapiens, UniProt Q9H7Z6); assay: KAT8 activity assay; type: biochemical; settings: N.I. = no inhibition
T2 sequence (Q9H7Z6 1-458): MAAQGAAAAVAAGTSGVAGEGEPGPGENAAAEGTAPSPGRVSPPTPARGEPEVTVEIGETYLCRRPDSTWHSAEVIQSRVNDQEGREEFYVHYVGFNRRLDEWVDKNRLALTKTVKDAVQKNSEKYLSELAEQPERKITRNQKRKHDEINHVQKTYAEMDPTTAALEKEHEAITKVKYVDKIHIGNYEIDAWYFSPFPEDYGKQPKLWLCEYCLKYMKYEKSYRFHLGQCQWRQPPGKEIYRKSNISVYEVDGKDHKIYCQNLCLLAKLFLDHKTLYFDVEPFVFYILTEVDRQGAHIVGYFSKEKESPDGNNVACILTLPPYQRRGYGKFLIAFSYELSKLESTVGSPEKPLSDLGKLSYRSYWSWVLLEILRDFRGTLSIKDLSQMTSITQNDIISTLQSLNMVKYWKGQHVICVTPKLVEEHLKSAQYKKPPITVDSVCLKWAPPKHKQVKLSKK

[6] = tested on: murine precision-cut lung slices (PCLS); type: cell-based
[7] = tested on: histone H3 and H4 acetylation in RAW264.7 cells; assay: Histone acetylation by acetic anhydride-d6 labelling and LC-MS/MS; type: cell-based, murine
[8] = molecular target: T3, HDAC6 (Homo sapiens, UniProt Q9UBN7); assay: human recombinant HDAC inhibition assay and Lineweaver-Burk plots; type: biochemical
T3 sequence (Q9UBN7 1-1215): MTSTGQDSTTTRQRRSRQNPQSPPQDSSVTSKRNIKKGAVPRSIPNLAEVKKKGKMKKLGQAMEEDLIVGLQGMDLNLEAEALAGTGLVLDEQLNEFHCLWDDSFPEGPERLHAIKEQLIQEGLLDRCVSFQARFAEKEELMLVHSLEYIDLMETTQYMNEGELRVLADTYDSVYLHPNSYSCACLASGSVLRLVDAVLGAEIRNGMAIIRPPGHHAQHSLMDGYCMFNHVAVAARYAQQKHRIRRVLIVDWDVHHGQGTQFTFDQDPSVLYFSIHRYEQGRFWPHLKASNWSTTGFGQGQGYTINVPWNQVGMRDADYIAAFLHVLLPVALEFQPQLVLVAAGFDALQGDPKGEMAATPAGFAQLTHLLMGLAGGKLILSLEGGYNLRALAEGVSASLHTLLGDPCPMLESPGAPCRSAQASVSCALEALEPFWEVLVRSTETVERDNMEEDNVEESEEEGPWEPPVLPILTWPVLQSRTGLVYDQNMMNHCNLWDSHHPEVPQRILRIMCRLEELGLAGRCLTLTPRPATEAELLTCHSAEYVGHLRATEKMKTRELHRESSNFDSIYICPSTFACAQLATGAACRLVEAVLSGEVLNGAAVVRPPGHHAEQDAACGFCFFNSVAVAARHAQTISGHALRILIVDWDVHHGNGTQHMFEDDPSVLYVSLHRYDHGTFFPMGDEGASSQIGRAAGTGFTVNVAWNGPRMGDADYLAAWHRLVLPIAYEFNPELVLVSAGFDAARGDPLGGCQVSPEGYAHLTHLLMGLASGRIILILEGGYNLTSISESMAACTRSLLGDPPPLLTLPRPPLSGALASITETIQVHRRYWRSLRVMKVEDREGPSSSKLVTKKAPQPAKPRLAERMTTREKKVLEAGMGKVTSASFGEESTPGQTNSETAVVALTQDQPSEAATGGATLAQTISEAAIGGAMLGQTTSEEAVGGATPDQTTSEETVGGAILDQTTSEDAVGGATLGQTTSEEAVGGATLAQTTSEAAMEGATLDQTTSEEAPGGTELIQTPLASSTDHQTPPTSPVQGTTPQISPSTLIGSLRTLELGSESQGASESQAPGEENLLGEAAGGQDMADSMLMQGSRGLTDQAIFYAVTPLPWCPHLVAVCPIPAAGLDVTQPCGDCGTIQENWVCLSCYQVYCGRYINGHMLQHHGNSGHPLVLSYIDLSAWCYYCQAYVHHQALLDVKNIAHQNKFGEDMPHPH

[9] = molecular target: HDAC1 (Homo sapiens, UniProt Q13547); assay: human recombinant HDAC inhibition assay; type: biochemical; settings: N.I. = no inhibition
Sequence of HDAC1 (Q13547 whole entry): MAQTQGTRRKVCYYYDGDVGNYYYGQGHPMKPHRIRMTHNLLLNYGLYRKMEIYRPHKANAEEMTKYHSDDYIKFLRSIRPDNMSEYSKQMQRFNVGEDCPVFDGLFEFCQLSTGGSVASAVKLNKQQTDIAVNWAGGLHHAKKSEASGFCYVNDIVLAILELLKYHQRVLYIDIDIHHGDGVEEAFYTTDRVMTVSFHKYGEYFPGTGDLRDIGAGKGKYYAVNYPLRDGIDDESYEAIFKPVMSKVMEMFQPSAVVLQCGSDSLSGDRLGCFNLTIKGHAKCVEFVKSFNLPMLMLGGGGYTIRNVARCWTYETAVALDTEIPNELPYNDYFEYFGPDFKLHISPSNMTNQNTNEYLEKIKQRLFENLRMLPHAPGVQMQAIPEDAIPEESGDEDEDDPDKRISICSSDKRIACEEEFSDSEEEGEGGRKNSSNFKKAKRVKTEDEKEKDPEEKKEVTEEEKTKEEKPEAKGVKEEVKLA

[10] = molecular target: HDAC3 (Homo sapiens, UniProt O15379); assay: human recombinant HDAC inhibition assay; type: biochemical; settings: read-out: Ki value HDAC3
Sequence of HDAC3 (O15379 whole entry): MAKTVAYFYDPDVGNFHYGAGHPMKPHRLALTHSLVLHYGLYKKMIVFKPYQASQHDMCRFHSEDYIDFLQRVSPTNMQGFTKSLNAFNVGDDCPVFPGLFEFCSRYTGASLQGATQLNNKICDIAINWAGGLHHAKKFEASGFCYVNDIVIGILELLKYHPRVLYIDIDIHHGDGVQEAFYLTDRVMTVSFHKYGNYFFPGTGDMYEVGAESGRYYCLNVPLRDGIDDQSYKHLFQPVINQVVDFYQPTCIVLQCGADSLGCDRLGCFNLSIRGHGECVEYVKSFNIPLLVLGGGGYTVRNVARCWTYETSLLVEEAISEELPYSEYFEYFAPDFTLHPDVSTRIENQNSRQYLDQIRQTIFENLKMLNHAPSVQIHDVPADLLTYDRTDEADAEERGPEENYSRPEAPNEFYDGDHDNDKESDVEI
Sequence of HDAC3 (Q9Y618 395-489 partner limits assumed): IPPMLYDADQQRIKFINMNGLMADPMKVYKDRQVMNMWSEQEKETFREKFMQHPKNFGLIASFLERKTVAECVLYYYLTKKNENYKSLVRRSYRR

[11] = tested on: NF-κB promoter activity in RAW-Blue macrophages; assay: RAW-Blue NF-κB reporter gene assay; type: cell-based, murine; settings: 16 hrs pre-treatment + 4 hrs stimulus
[12] = tested on: precision-cut lung slices (PCLS); assay: PCLS viability by lactate dehydrogenase; type: cell-based, murine; settings: C646 concentrations above 25 μM
[13] = tested on: α-tubulin acetylation in RAW264.7 cells; assay: α-tubulin acetylation immunoblot; type: cell-based, murine
[14] = molecular target: HDAC2 (Homo sapiens, UniProt Q92769); assay: human recombinant HDAC inhibition assay and Lineweaver-Burk plots; type: biochemical
Sequence of HDAC2 (Q92769 whole entry): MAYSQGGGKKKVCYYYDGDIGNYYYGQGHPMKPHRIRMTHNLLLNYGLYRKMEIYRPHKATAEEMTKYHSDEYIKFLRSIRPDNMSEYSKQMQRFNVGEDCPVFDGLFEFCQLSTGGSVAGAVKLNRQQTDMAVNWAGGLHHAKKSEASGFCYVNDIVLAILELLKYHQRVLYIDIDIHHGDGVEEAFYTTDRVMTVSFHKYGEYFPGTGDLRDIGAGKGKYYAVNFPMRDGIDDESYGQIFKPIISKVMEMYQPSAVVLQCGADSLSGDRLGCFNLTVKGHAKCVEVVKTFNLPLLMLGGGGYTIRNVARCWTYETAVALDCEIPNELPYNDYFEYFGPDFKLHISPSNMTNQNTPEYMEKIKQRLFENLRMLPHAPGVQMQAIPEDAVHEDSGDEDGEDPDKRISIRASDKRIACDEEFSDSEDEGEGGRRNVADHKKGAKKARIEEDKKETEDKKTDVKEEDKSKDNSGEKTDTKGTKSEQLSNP

[15] = RAW264.7, C646 at 30 μM, downregulation
[16] = C646 at 15, 20, 25 or 30 μM for 6 hrs
[17] = Boc-Lys-(Ac)-AMC as substrate, Lineweaver-Burk plot

## CC1=NN(c2ccc(C(=O)O)cc2)C(=O)/C1=C\c1ccc(-c2cc(C)c(C)cc2[N+](=O)[O-])o1 [C646]
[1]
  concentration from which histone deacetylases are inhibited: ≥ 7 µM
[2]
  Ki: 11 ± 1 µM
[3]; [15]
  percentage of change in IL-12b gene expression compared to vehicle: 54.2%
  percentage of change in TNFα gene expression compared to vehicle: 54.1%
[4]
  viability of the macrophages: decreased viability
[5]
  Ki value KAT8: N.I.
[6]; C646 at 25 μM, downregulation
  percentage of change in IL-1β gene expression compared to vehicle: 72.3%
  percentage of change in IL-12b gene expression compared to vehicle: 85.0%
  percentage of change in TNFα gene expression compared to vehicle: 79.1%
  percentage of change in iNOS gene expression compared to vehicle: 58.4%
[7]; C646 30 μM for 6 hrs
  acetylation status of histone H3 res. 18-26 (H3 K18 and H3 K23): small yet significant increase
[7]; [16]
  acetylation status of histone H4 res. 4-17: No significant changes
  acetylation status of other histone H4 peptides: no changes in acetylation status
[7]; C646 at 15, 20, 25 or 30 μM for 20 hrs, no inflammatory stimulus
  histone acetylation (H3 res. 18-26, H4 res. 4-17): No changes in histone acetylation
[7]; C646 at concentrations lower than 30 μM for 6 hrs
  acetylation status of histone H3 res. 18-26 (H3 K18 and H3 K23): not significant
[8]; [17]
  kinetics of inhibition of HDAC6: non-competitive inhibition
[8]; read-out: Ki value HDAC6
  Ki: 7 ± 1 µM
[9]
  Ki value HDAC1: N.I.
[10]
  Ki: 25 ± 5 µM
[11]; C646 at 15 μM or higher (up to 30 μM)
  LPS and IFNγ induced NF-κB promoter activity: significant inhibition
[12]
  viability of PCLS: decreased viability
[13]; C646 15 μM for 6 hrs
  α-tubulin acetylation: but not at 15 μM
[13]; C646 30 μM for 6 hrs
  α-tubulin acetylation: pronounced inhibition
[13]; C646 30 μM for 20 hrs
  α-tubulin acetylation: inhibition of α-tubulin acetylation was also observed
[14]; [17]
  kinetics of inhibition of HDAC2: non-competitive inhibition
[14]; read-out: Ki value HDAC2
  Ki: 15 ± 1 µM

## O=C(CCCCCCC(=O)Nc1ccccc1)NO [SAHA, suberanilohydroxamic acid]
[3]; RAW264.7, SAHA at 0.41 μM, upregulation
  percentage of change in IL-1β gene expression compared to vehicle: 317%
[6]; SAHA at 0.41 μM, downregulation
  percentage of change in iNOS gene expression compared to vehicle: 39.9%
[6]; SAHA at 0.41 μM, upregulation
  percentage of change in IL-1β gene expression compared to vehicle: 41.5%
  percentage of change in IL-6 gene expression compared to vehicle: 58.8%
[7]; SAHA 0.41 µM for 20 hrs
  acetylation of histone-derived peptides H4 4-17 and H3 18-26: increased acetylation
[11]; SAHA 0.41 μM
  LPS and IFNγ induced NF-κB promoter activity: further enhanced
[13]; SAHA, data not shown
  α-tubulin acetylation: upregulated

From PMC4871277 (Biochemical pharmacology, 2015)
